System: keratin K15 (cytokeratin 15, CK15) of human epithelial hair follicle stem cells
Assay: Quantitative immunohistochemistry for keratin K15 in organ-cultured human hair follicles
Type: cell-based
Details: for relative intensity of immunohistochemistry of keratin K15: microdissected human anagen VI hair follicles in organ culture, 6 days, relative intensity of the vehicle=1
Description: The scope of the study is to determine the effects of N^1-methyl spermidine, a compound of formula (I) of this invention, on the biomarker keratin K15 (cytokeratin 15, CK15) of human epithelial hair follicle stem cells (heHFSCs). As reference on this point in the literature we can quote Kloepper JE et al. (2008), Immunophenotyping of the human bulge region: the quest to define useful in situ markers for human epithelial hair follicle stem cells and their niche. Exp Dermatol 17: 592-609.
Scalp samples were collected from two women who were submitted to surgical lifting, after obtaining their informed consent. Experiments were performed in compliance with the Helsinki principles, with the Ethics Committee's approval. Details of samples are described in Table 1 below.
J Dermatol Sci 7: SuppIS 55-72.
N^1-methyl-spermidine of the invention or spermidine or the vehicle were changed every 48 hours with the culture medium. A summary of the study procedure is presented in Table 2 below, in which N^1-methyl spermidine, the compound of formula (II) of this invention, used in the test at concentrations of 0.5 and 1.5 μM is the active substance', while spermidine was used as a control at the concentration of 0.5 μM.
The tyramide signal amplification method was used to assess the expression of keratin K15, as described in the abovementioned paper by Kloepper et al. (2008). The cryosections fixed in acetone were washed thrice for 5 minutes using the buffer (0.1 mol/L Tris-HCl, pH 7.5, containing 0.15 mol/L NaCl and 0.05% Tween 20) TNT (Tris-HCl NaCl Tween). Later, peroxidase was inhibited by washing with 3% H2O2 in phosphate buffered saline (PBS) for 15 min. Preincubation was performed with avidin and biotin for 15 minutes, and with 5% normal goat serum in TNT for 30 minutes with intermediate lavage. The Mouse Anti-Human K15 antibody (clone LHK15, Chemicon, Billerica, USA) was diluted in TNT and incubated for one night at 4° C. This incubation period was followed by a second incubation period with a secondary biotinylated Goat Anti-Mouse antibody (1:200 in TNT) for 45 minutes in RT. […] Immunohistochemistry intensity was quantified with the ImageJ software (National Institutes of Health). Stain intensity of the defined reference regions of the follicle was measured and compared between the control groups and groups treated with N^1-methyl spermidine at the concentrations of 0.5 and 1.5 μM, or with spermidine 0.5 μM. • Statistical Analysis
The statistical analysis was performed using a two tailed Student t-test for samples that were not coupled. To group the two experiments, each treatment group was compared with the control group (mean value), and the relative variation in expression was calculated.

Row | Structure (SMILES) | inductive effect towards keratin K15 compared with an equal concentration of spermidine (0.5 μM vs spermidine 0.5 μM) | relative intensity of immunohistochemistry of keratin K15 (0.5 μM) | relative intensity of immunohistochemistry of keratin K15 (1.5 μM)
1 | CN(CCCN)CCCCN [N^1-methyl spermidine, N-(3-aminopropyl)-N^1-methyl-1,4-butandiamine] | higher than that of an equal concentration of 0.5 μM of spermidine | 1.739 | 1.806
2 | NCCCCNCCCN [spermidine, reference compound] | – | 1.12 | –

From patent publication US20160030365A1, “PHARMACEUTICAL OR COSMETIC COMPOSITION SUITABLE TO PRESERVE EPITHELIAL STEM CELLS” (GIULIANI S.P.A., priority 2013, published 2016)
